Results from patent US20220411473A1, “LYSIN-ANTIMICROBIAL PEPTIDE (AMP) POLYPEPTIDE CONSTRUCTS, LYSINS, ISOLATED POLYNUCLEOTIDES ENCODING SAME AND USES THEREOF” (priority 2019, published 2022).
Like-named read-outs stand apart in the source and are kept apart here.

Columns and labels:
[1] = system: carbapenem-resistant P. aeruginosa strains; format: cell-based, Pseudomonas aeruginosa; settings: for susceptibility category, antibiotic alone: Table 22, WC-452; as to susceptibility category, antibiotic alone: key: (R) = resistant; (S) = sensitive; as to susceptibility category, imipenem alone: key: (R) = resistant; (S) = sensitive; as to susceptibility category, imipenem in combination with GN121: key: (R) = resistant; (S) = sensitive; as to susceptibility category, imipenem in combination with GN123: key: (R) = resistant; (S) = sensitive; as to susceptibility category, meropenem alone: key: (R) = resistant; (S) = sensitive; as to susceptibility category, meropenem in combination with GN123: key: (R) = resistant; (S) = sensitive
Protocol: Such resensitization may be determined by combining the present lysins or lysin-AMP polypeptide constructs with an antibiotic in a checkerboard assay as described herein. Antibiotic-resistant bacteria, such as carbapenem-resistant P. aeruginosa, are added to the lysin or lysin-AMP polypeptide construct combination. […] See Clinical and Laboratory Standards Institute (CLSI), CLSI. […] M100 Performance Standards for Antimicrobial Susceptibility Testing; 29th Edition. Clinical and Laboratory Standards Institute, Wayne, Pa., which is herein incorporated by reference in its entirety.
Up to seven carbapenem-resistant isolates were assessed. […] See Clinical and Laboratory Standards Institute (CLSI), CLSI. […] M100 Performance Standards for Antimicrobial Susceptibility Testing; 29th Edition. Clinical and Laboratory Standards Institute, Wayne, Pa.

Staphylococcus aureus = test: Daptomycin MIC in […] (positive control); format: cell-based; settings: S. aureus
Protocol: As a positive control, the impact of […] ® on daptomycin (DAP) activity against Staphylococcus aureus was also tested.

[2] = Table 18, isolates PA19-PA24 and WC-452
[3] = Table 19, isolates PA19-PA24 and WC-452

C[C@@H](O)[C@H]1C(=O)N2C(C(=O)O)=C(SCCN=CN)C[C@H]12 [Imipenem, imipenem]
0.25 µg/mL: MIC Combination ([1]; isolate PA23, imipenem + GN123)
R: susceptibility category, imipenem alone [1, 2] | susceptibility category, imipenem alone ([1]; Table 20, isolates PA19-PA24) | susceptibility category, antibiotic alone [1]
0.5 µg/mL: MIC Combination ([1]; isolate PA19, imipenem + GN123) | MIC Combination ([1]; isolate PA20, imipenem + GN121) | MIC Combination ([1]; isolate PA21, imipenem + GN123)
1 µg/mL: MIC Combination ([1]; isolate PA19, imipenem + GN121) | MIC Combination ([1]; isolate PA20, imipenem + GN123) | MIC Combination ([1]; isolate PA21, imipenem + GN121) | MIC Combination ([1]; isolate PA24, imipenem + GN121) | MIC Combination ([1]; isolate WC-452, imipenem + GN123)
2 µg/mL: MIC Combination ([1]; isolate PA22, imipenem + GN121) | MIC Combination ([1]; isolate PA22, imipenem + GN123) | MIC Combination ([1]; isolate PA24, imipenem + GN123)
(S): susceptibility category, imipenem in combination with GN123 [1, 2] | susceptibility category, imipenem in combination with GN121 ([1]; Table 20, isolates PA19-PA24)

daptomycin
32 fold: fold increase in MIC (Staphylococcus aureus; 0.09% SURVANTA) | fold increase in MIC (Staphylococcus aureus; 0.19% SURVANTA)
128 fold: fold increase in MIC (Staphylococcus aureus; 1.56% SURVANTA) | fold increase in MIC (Staphylococcus aureus; 3.15% SURVANTA)

C[C@@H](O)[C@H]1C(=O)N2C(C(=O)O)=C(S[C@@H]3CN[C@H](C(=O)N(C)C)C3)[C@H](C)[C@H]12 [Meropenem, meropenem]
1 µg/mL: MIC Combination ([1]; isolate PA19, meropenem + GN121) | MIC Combination ([1]; isolate PA20, meropenem + GN121) | MIC Combination ([1]; isolate PA21, meropenem + GN123) | MIC Combination ([1]; isolate PA22, meropenem + GN121) | MIC Combination ([1]; isolate PA22, meropenem + GN123) | MIC Combination ([1]; isolate PA24, meropenem + GN121) | MIC Combination ([1]; isolate WC-452, meropenem + GN121) | MIC Combination ([1]; isolate WC-452, meropenem + GN123)
(S): susceptibility category, meropenem in combination with GN123 [1, 3]
0.5 µg/mL: MIC Combination ([1]; isolate PA19, meropenem + GN123) | MIC Combination ([1]; isolate PA20, meropenem + GN123) | MIC Combination ([1]; isolate PA23, meropenem + GN123)
R: susceptibility category, meropenem alone [1, 3] | susceptibility category, meropenem alone ([1]; Table 21, isolates PA19-PA24 and WC-452) | susceptibility category, antibiotic alone [1]
2 µg/mL: MIC Combination ([1]; isolate PA21, meropenem + GN121) | MIC Combination ([1]; isolate PA23, meropenem + GN121) | MIC Combination ([1]; isolate PA24, meropenem + GN123)
